Assays:
[1] = tested on: ENR+CD organoids (ISC to Paneth cell differentiation); assay: Primary screen: basal (non-stimulated) lysozyme secretion LYZ.NS, 2.5-D 384-well ENR+CD organoid differentiation; type: cell-based, mouse; conditions: primary screen; for Z.LYZ.NS: standard z score
From the text: (§1) High-throughput screening.

[2] = tested on: ENR+CD organoids (ISC to Paneth cell differentiation); assay: Primary screen: CCh-stimulated lysozyme secretion LYZ.S, 2.5-D 384-well ENR+CD organoid differentiation; type: cell-based, mouse; conditions: primary screen
From the text: as §1

ENR+CD organoids = assay: Primary screen: ATP (CellTiter-Glo 3D, CTG) cell number/viability, 2.5-D 384-well ENR+CD organoids; conditions: primary screen; for Z.CTG: standard z score;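 on all read-outs here: compounds given at plating and again on day 3 over a 6-day differentiation from ENR+CV stem-cell-enriched precursors, ATP measured on day 6, plate median as control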
[3] = dose 0.08 uM, FC vs plate median
[4] = dose 0.40 uM, FC vs plate median
[5] = dose 2.00 uM, FC vs plate median
[6] = dose 10.00 uM, FC vs plate median

Row | SMILES | Z.LYZ.NS ([1]; dose 0.08 uM) | Z.LYZ.NS ([1]; dose 0.40 uM) | Z.LYZ.NS ([1]; dose 2.00 uM) | Z.LYZ.NS ([1]; dose 10.00 uM) | Dose.FC.LYZ.NS [1, 3] [log2 fold change] | Dose.FC.LYZ.NS [1, 4] [log2 fold change] | Dose.FC.LYZ.NS [1, 5] [log2 fold change] | Dose.FC.LYZ.NS [1, 6] [log2 fold change] | Dose.FC.LYZ.S [2, 3] [log2 fold change] | Dose.FC.LYZ.S [2, 4] [log2 fold change] | Dose.FC.LYZ.S [2, 5] [log2 fold change] | Dose.FC.LYZ.S [2, 6] [log2 fold change] | Z.CTG (ENR+CD organoids; dose 0.08 uM) | Z.CTG (ENR+CD organoids; dose 0.40 uM) | Z.CTG (ENR+CD organoids; dose 2.00 uM) | Z.CTG (ENR+CD organoids; dose 10.00 uM) | Dose.FC.CTG (ENR+CD organoids; [3]) [log2 fold change] | Dose.FC.CTG (ENR+CD organoids; [4]) [log2 fold change] | Dose.FC.CTG (ENR+CD organoids; [5]) [log2 fold change] | Dose.FC.CTG (ENR+CD organoids; [6]) [log2 fold change] | other results
1 | COc1ccnc2[nH]cc(C(=O)C(=O)N3CCN(C(=O)c4ccccc4)C[C@H]3C)c12 [BMS-378806] | – | – | – | – | – | – | – | – | – | – | – | – | – | – | – | – | – | – | – | – | Dose.FC.LYZ.NS ([1]; dose 0.08 uM): 0.141 log2 fold change; Z.LYZ.NS (standard z score) ([1]; dose 0.08 uM): 1.231; Dose.FC.LYZ.NS ([1]; dose 2.00 uM): −0.100 log2 fold change; Z.LYZ.NS (standard z score) ([1]; dose 2.00 uM): −0.870; Dose.FC.LYZ.NS ([1]; dose 10.00 uM): −0.227 log2 fold change; Z.LYZ.NS (standard z score) ([1]; dose 10.00 uM): −1.977; Dose.FC.LYZ.S ([2]; dose 0.08 uM): 0.159 log2 fold change; Dose.FC.LYZ.S ([2]; dose 2.00 uM): −0.142 log2 fold change; Dose.FC.LYZ.S ([2]; dose 10.00 uM): −0.322 log2 fold change; Dose.FC.CTG (ENR+CD organoids; dose 0.08 uM): 0.233 log2 fold change; Z.CTG (standard z score) (ENR+CD organoids; dose 0.08 uM): 0.557; Dose.FC.CTG (ENR+CD organoids; dose 2.00 uM): −0.289 log2 fold change; Z.CTG (standard z score) (ENR+CD organoids; dose 2.00 uM): −0.691; Dose.FC.CTG (ENR+CD organoids; dose 10.00 uM): −1.155 log2 fold change; Z.CTG (standard z score) (ENR+CD organoids; dose 10.00 uM): −2.758
2 | O=C(NCCN1CCOCC1)c1ccc(Cl)cc1 [Moclobemide (Ro 111163)] | 0.654 | 1.055 | 0.011 | −0.243 | 0.075 | 0.121 | 0.001 | −0.028 | 0.147 | 0.094 | 0.012 | 0.019 | 0.348 | 0.252 | 0.276 | 0.100 | 0.146 | 0.106 | 0.116 | 0.042 | –
3 | O=C1[C@H](Cc2ccc(O)cc2)N2C(=O)CCN(C(=O)NCc3ccccc3)[C@H]2CN1Cc1cccc2ccccc12 [ICG-001] | – | – | – | – | – | – | – | – | – | – | – | – | – | – | – | – | – | – | – | – | Dose.FC.LYZ.NS (log2 fold change) ([1]; dose 0.08 uM): 0.037; Z.LYZ.NS (standard z score) ([1]; dose 0.08 uM): 0.324; Dose.FC.LYZ.NS (log2 fold change) ([1]; dose 0.40 uM): 0.037; Z.LYZ.NS (standard z score) ([1]; dose 0.40 uM): 0.321; Dose.FC.LYZ.NS (log2 fold change) ([1]; dose 2.00 uM): 0.045; Z.LYZ.NS (standard z score) ([1]; dose 2.00 uM): 0.396; Dose.FC.LYZ.NS (log2 fold change) ([1]; dose 10.00 uM): −0.125; Z.LYZ.NS (standard z score) ([1]; dose 10.00 uM): −1.093; Dose.FC.LYZ.S (log2 fold change) ([2]; dose 0.08 uM): 0.163; Dose.FC.LYZ.S (log2 fold change) ([2]; dose 0.40 uM): 0.204; Dose.FC.LYZ.S (log2 fold change) ([2]; dose 2.00 uM): 0.017; Dose.FC.LYZ.S (log2 fold change) ([2]; dose 10.00 uM): −0.124; Dose.FC.CTG (log2 fold change) (ENR+CD organoids; dose 0.08 uM): 0.104; Z.CTG (standard z score) (ENR+CD organoids; dose 0.08 uM): 0.249; Dose.FC.CTG (log2 fold change) (ENR+CD organoids; dose 0.40 uM): 0.104; Z.CTG (standard z score) (ENR+CD organoids; dose 0.40 uM): 0.248; Dose.FC.CTG (log2 fold change) (ENR+CD organoids; dose 2.00 uM): 0.143; Z.CTG (standard z score) (ENR+CD organoids; dose 2.00 uM): 0.343; Dose.FC.CTG (log2 fold change) (ENR+CD organoids; dose 10.00 uM): −0.416; Z.CTG (standard z score) (ENR+CD organoids; dose 10.00 uM): −0.993
4 | CC(=O)c1cc([N+](=O)[O-])c(Sc2ccc(F)cc2F)s1 [P22077] | 0.338 | −0.041 | 0.248 | −0.487 | 0.039 | −0.005 | 0.028 | −0.056 | −0.182 | 0.065 | −0.007 | −0.063 | −0.516 | 0.117 | −0.320 | −0.311 | −0.216 | 0.049 | −0.134 | −0.130 | –
5 | COc1ccccc1S(=O)(=O)Nc1ccc2c(c1)CN(C)C(=O)N2 [PFI-1 (PF-6405761)] | 0.538 | 0.691 | −0.852 | −0.573 | 0.062 | 0.079 | −0.098 | −0.066 | 0.061 | 0.104 | −0.117 | −0.194 | 0.340 | 0.931 | 0.770 | −0.929 | 0.142 | 0.390 | 0.322 | −0.389 | –
